Experimental data published in ChEMBL document CHEMBL4392882, “Glycosidic Acids with Unusual Aglycone Units from Convolvulus arvensis” (J Nat Prod, 2019).
The source made the active and inactive calls.

Tests used:
Type in all cases: functional, cell-based
MCF7 [1] = assay: Cytotoxicity in human MCF7 cells assessed as reduction in cell viability up to 50 uM by MTT assay
Bel-7402 = assay: Cytotoxicity in human Bel7402 cells assessed as reduction in cell viability up to 50 uM by MTT assay
HeLa = assay: Cytotoxicity in human HeLa cells assessed as reduction in cell viability up to 50 uM by MTT assay
A549 = assay: Cytotoxicity in human A549 cells assessed as reduction in cell viability up to 50 uM by MTT assay
MCF7 [2] = assay: Inhibition of cell migration of human MCF7 cells up to 50 uM by wound healing assay

CCCCCC[C@@H](CCCCCCCCCC(=O)O)O[C@@H]1O[C@H](C)[C@H](O)[C@H](O)[C@H]1O[C@@H]1O[C@H](CO)[C@@H](O)[C@H](O[C@@H]2O[C@H](CO[C@@H]3O[C@H](CO)[C@@H](O[C@@H]4O[C@H](CO)[C@@H](O)[C@H](O)[C@H]4O)[C@H](O)[C@H]3O)[C@@H](O)[C@H](O)[C@H]2O)[C@H]1O[C@@H]1O[C@@H](C)[C@H](O)[C@@H](O)[C@H]1O
inactive: Activity (MCF7 [1]) | Activity (Bel-7402) | Activity (HeLa) | Activity (A549) | inhibition (MCF7 [2])

CCCCC[C@@H](CCCCCCCCCC(=O)O)O[C@@H]1O[C@H](C)[C@H](O)[C@H](O)[C@H]1O[C@@H]1O[C@H](CO)[C@@H](O)[C@H](O[C@@H]2O[C@H](CO[C@@H]3O[C@H](CO)[C@@H](O[C@@H]4O[C@H](CO)[C@@H](O)[C@H](O)[C@H]4O)[C@H](O)[C@H]3O)[C@@H](O)[C@H](O)[C@H]2O)[C@H]1O[C@@H]1O[C@@H](C)[C@H](O)[C@@H](O)[C@H]1O
inactive: Activity (MCF7 [1]) | Activity (Bel-7402) | Activity (HeLa) | Activity (A549) | inhibition (MCF7 [2])

CCCCC[C@@H](CCCCCCCCCC(=O)O)O[C@@H]1O[C@H](C)[C@H](O)[C@H](O)[C@H]1O[C@@H]1O[C@H](CO)[C@@H](O)[C@H](O[C@@H]2O[C@H](CO)[C@@H](O[C@@H]3O[C@H](CO[C@@H]4O[C@H](C)[C@H](O)[C@H](O)[C@H]4O)[C@@H](O)[C@H](O)[C@H]3O)[C@H](O)[C@H]2O)[C@H]1O[C@@H]1O[C@@H](C)[C@H](O)[C@@H](O)[C@H]1O
inactive: Activity (MCF7 [1]) | Activity (Bel-7402) | Activity (HeLa) | Activity (A549) | inhibition (MCF7 [2])

CCCCCC[C@@H](CCCCCCCCCC(=O)O)O[C@@H]1O[C@H](C)[C@H](O)[C@H](O)[C@H]1O[C@@H]1O[C@H](CO)[C@@H](O)[C@H](O[C@@H]2O[C@H](CO[C@@H]3O[C@H](CO)[C@@H](O[C@@H]4O[C@H](CO[C@@H]5O[C@H](C)[C@H](O)[C@H](O)[C@H]5O)[C@@H](O)[C@H](O)[C@H]4O)[C@H](O)[C@H]3O)[C@@H](O)[C@H](O)[C@H]2O)[C@H]1O[C@@H]1O[C@@H](C)[C@H](O)[C@@H](O)[C@H]1O
inactive: Activity (MCF7 [1]) | Activity (Bel-7402) | Activity (HeLa) | Activity (A549) | inhibition (MCF7 [2])

CCCCCC[C@@H](CCCCCCCCCC(=O)O)O[C@@H]1O[C@H](C)[C@H](O)[C@H](O)[C@H]1O[C@@H]1O[C@H](CO)[C@@H](O)[C@H](O[C@@H]2O[C@H](CO)[C@@H](O[C@@H]3O[C@H](CO[C@@H]4O[C@H](C)[C@H](O)[C@H](O)[C@H]4O)[C@@H](O)[C@H](O)[C@H]3O)[C@H](O)[C@H]2O)[C@H]1O[C@@H]1O[C@@H](C)[C@H](O)[C@@H](O)[C@H]1O
inactive: Activity (MCF7 [1]) | Activity (Bel-7402) | Activity (HeLa) | Activity (A549) | inhibition (MCF7 [2])

CCCCC[C@@H](CCCCCCCCCC(=O)O)O[C@@H]1O[C@H](C)[C@H](O)[C@H](O)[C@H]1O[C@@H]1O[C@H](CO)[C@@H](O)[C@H](O[C@@H]2O[C@H](CO[C@@H]3O[C@H](CO)[C@@H](O[C@@H]4O[C@H](CO[C@@H]5O[C@H](C)[C@H](O)[C@H](O)[C@H]5O)[C@@H](O)[C@H](O)[C@H]4O)[C@H](O)[C@H]3O)[C@@H](O)[C@H](O)[C@H]2O)[C@H]1O[C@@H]1O[C@@H](C)[C@H](O)[C@@H](O)[C@H]1O
inactive: Activity (MCF7 [1]) | Activity (Bel-7402) | Activity (HeLa) | Activity (A549) | inhibition (MCF7 [2])
